Experimental data: ChEMBL document CHEMBL5209568, “Membrane potential based assay for SLC5A11 using HEK-293 SLC5A11 OE cells” (2022)

Target: T1, Sodium/myo-inositol cotransporter 2 (Homo sapiens, UniProt Q8WWX8)
T1 sequence (Q8WWX8 whole entry): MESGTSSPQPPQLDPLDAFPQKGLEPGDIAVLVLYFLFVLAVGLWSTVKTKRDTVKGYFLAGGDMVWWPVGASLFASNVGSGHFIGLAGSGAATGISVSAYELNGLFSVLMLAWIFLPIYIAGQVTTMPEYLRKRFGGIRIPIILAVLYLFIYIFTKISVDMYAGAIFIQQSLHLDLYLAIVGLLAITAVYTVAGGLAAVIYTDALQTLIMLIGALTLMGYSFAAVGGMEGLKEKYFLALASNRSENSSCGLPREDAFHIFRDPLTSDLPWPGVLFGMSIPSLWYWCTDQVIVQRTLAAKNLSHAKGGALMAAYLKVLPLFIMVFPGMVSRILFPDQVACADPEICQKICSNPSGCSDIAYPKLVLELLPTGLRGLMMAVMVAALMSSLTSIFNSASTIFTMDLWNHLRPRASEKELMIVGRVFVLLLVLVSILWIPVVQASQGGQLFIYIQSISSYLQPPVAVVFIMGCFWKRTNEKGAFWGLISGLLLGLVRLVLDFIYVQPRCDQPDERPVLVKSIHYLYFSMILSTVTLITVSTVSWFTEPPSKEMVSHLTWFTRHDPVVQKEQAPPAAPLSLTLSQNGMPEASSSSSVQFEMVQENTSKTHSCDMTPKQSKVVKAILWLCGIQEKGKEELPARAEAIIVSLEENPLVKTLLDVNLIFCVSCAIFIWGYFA
Experiment: Substrate uptake by the Sodium/myo-inositol cotransporter 2 (SMIT2, SLC5A11) as assessed by the fluorescent FLIPR membrane potential dye in HEK-293 JumpIN-SLC5A11 cells (PubChem AID: 1794826)
Type: functional, cell-based, HEK293

EC50: 104 µM
Compound: O[C@H]1[C@@H](O)[C@@H](O)[C@@H](O)[C@@H](O)[C@@H]1O
